Experimental data taken from ChEMBL document CHEMBL5260833, “An overview of quinazolines: Pharmacological significance and recent developments” (Eur J Med Chem, 2018).
Converted amounts (≈) assume the structure as drawn.

Key:
[1] = tested on: Fusarium graminearum; assay: Antifungal activity against Gibberella zeae assessed as bacterial growth inhibition at 50 ug/ml incubated for 5 days relative to control; format: functional; conditions: 120 h, time 5 day
[2] = tested on: Fusarium oxysporum; assay: Antifungal activity against Fusarium oxysporum assessed as bacterial growth inhibition at 50 ug/ml incubated for 5 days relative to control; format: functional; conditions: 120 h, time 5 day
[3] = tested on: Cytospora mali; assay: Antifungal activity against Valsa mali assessed as bacterial growth inhibition at 50 ug/ml incubated for 5 days relative to control; format: functional; conditions: 120 h, time 5 day
[4] = tested on: Rattus norvegicus; assay: Inhibition of AII induced rat assessed as vasoconstrictor at 15 mg/kg, iv; format: functional
[5] = target: T1, Type-1 angiotensin II receptor A (Rattus norvegicus, UniProt P25095); assay: Inhibition of rat adrenal cortex angiotensin II; format: tissue-based
T1 sequence (P25095 whole entry): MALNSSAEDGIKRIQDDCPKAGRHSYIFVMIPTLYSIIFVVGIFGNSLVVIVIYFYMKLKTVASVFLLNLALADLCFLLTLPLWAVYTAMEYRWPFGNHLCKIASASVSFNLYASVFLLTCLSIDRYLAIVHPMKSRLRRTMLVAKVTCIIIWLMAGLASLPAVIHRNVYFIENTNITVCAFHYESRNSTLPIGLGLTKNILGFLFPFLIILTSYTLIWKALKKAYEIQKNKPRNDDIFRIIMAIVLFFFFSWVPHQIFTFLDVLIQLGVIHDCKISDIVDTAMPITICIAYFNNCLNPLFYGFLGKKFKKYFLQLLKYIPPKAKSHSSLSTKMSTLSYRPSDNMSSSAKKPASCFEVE

[6] = target: T2, Type-2 angiotensin II receptor (Rattus norvegicus, UniProt P35351); assay: Binding affinity to AT2 in rat brain; format: tissue-based
T2 sequence (P35351 whole entry): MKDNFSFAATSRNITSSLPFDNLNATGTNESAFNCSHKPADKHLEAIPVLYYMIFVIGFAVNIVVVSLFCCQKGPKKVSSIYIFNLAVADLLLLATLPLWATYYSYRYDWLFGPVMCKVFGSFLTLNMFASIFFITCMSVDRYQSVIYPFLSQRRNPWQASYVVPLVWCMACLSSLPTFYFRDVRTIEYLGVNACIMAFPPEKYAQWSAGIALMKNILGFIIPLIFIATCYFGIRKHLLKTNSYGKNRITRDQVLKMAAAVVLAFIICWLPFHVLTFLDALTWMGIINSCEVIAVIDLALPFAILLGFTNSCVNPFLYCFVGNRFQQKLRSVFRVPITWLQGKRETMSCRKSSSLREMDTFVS

[7] = tested on: Rattus norvegicus; assay: Inhibition of AII induced mean arterial blood pressure in rat assessed as vasoconstrictor at 5 mg/kg, po; format: functional
[8] = tested on: Proteus vulgaris; assay: Antimicrobial activity against Proteus vulgaris assessed as bacterial growth inhibition; format: functional
[9] = tested on: Staphylococcus saprophyticus; assay: Antimicrobial activity against Staphylococcus saprophyticus assessed as bacterial growth inhibition; format: functional
[10] = tested on: Micrococcus luteus; assay: Antimicrobial activity against Micrococcus luteus assessed as bacterial growth inhibition; format: functional
[11] = tested on: Citrobacter freundii; assay: Antimicrobial activity against Citrobacter freundii assessed as bacterial growth inhibition; format: functional
[12] = tested on: Mycolicibacterium phlei; assay: Antimicrobial activity against Mycobacterium phlei assessed as bacterial growth inhibition; format: functional
[13] = tested on: Proteus mirabilis; assay: Antimicrobial activity against Proteus mirabilis assessed as bacterial growth inhibition; format: functional
[14] = tested on: Bacillus subtilis; assay: Antimicrobial activity against Bacillus subtilis assessed as bacterial growth inhibition; format: functional
[15] = tested on: Escherichia coli; assay: Antimicrobial activity against Escherichia coli assessed as bacterial growth inhibition; format: functional
[16] = tested on: Staphylococcus epidermidis; assay: Antimicrobial activity against Staphylococcus epidermidis assessed as bacterial growth inhibition; format: functional
[17] = tested on: Klebsiella oxytoca; assay: Antimicrobial activity against Klebsiella oxytoca assessed as bacterial growth inhibition; format: functional
[18] = tested on: Candida albicans; assay: Antimicrobial activity against Candida albicans assessed as bacterial growth inhibition; format: functional
[19] = tested on: Staphylococcus aureus; assay: Antimicrobial activity against Staphylococcus aureus assessed as bacterial growth inhibition; format: functional
[20] = tested on: Pseudomonas aeruginosa; assay: Antimicrobial activity against Pseudomonas aeruginosa assessed as bacterial growth inhibition; format: functional

C=CCn1cnc2ccc(Br)cc2c1=O
inhibition at 50 µg/mL [1]: 5.5% | inhibition at 50 µg/mL [2]: 4.9% | inhibition at 50 µg/mL [3]: 30.4%

CCCC1N(Cc2ccc(-c3ccccc3-c3nn[nH]n3)cc2)C(=O)c2ccccc2N1C (stereo not given)
inhibition in vivo at 15 mg/kg [4]: 88% | IC50 [5]: 540 nM

Cc1cc(O)no1 [HYMEXAZOL]
inhibition at 50 µg/mL [1]: 50.4% | inhibition at 50 µg/mL [2]: 55.4% | inhibition at 50 µg/mL [3]: 22.5%

CCn1cnc2ccc(Cl)cc2c1=O
inhibition at 50 µg/mL [1]: 5.5% | inhibition at 50 µg/mL [2]: 4.9% | inhibition at 50 µg/mL [3]: 0.9%

CCCn1cnc2ccc(F)cc2c1=O
inhibition at 50 µg/mL [1]: 5.5% | inhibition at 50 µg/mL [2]: 4.9% | inhibition at 50 µg/mL [3]: 0.9%

CCCCC1Nc2ccc(C(C)C)cc2C(=O)N1Cc1ccc(-c2ccccc2-c2nn[nH]n2)cc1 (stereo not given)
inhibition in vivo at 15 mg/kg [4]: 88% | IC50 [5]: 1100 nM

CCn1cnc2ccc(Br)cc2c1=O
inhibition at 50 µg/mL [1]: 5.5% | inhibition at 50 µg/mL [2]: 4.9% | inhibition at 50 µg/mL [3]: 0.9%

CCCc1nc2ccc(N(Cc3ccccc3)C(=O)OC(C)(C)C)cc2c(=O)n1Cc1ccc(-c2ccccc2-c2nnn[nH]2)cc1
IC50 [6]: 0.46 nM

CCCn1cnc2ccccc2c1=O
inhibition at 50 µg/mL [1]: 5.5% | inhibition at 50 µg/mL [2]: 4.9% | inhibition at 50 µg/mL [3]: 0.9%

CCCCc1nc2ccc(C(O)C(C)(C)C)cc2c(=O)n1Cc1ccc(-c2ccccc2-c2nn[nH]n2)cc1 (stereo not given)
IC50 [5]: > 1000 nM | Activity [7]: 65 mmHg

CCCC1Nc2ccccc2C(=O)N1Cc1ccc(-c2ccccc2-c2nn[nH]n2)cc1 (stereo not given)
inhibition in vivo at 15 mg/kg [4]: 88% | IC50 [5]: 540 nM

CCCCC1Nc2ccccc2C(=O)N1Cc1ccc(-c2ccccc2-c2nn[nH]n2)cc1 (stereo not given)
inhibition in vivo at 15 mg/kg [4]: 88% | IC50 [5]: 14000 nM

CCc1nc2ccc(N(Cc3ccccc3)C(=O)c3cccs3)cc2c(=O)n1Cc1ccc(-c2ccccc2-c2nn[nH]n2)cc1
IC50 [6]: 0.22 nM

O=c1c2ccc([N+](=O)[O-])cc2nc(/C=C/c2ccc(Cl)cc2)n1-c1ccc(OCC2CO2)cc1 (stereo not given)
MIC [8]: 125 µg/mL (≈ 263 µM) | MIC [9]: 125 µg/mL (≈ 263 µM) | MIC [10]: 125 µg/mL (≈ 263 µM) | MIC [11]: 125 µg/mL (≈ 263 µM) | MIC [12]: 125 µg/mL (≈ 263 µM) | MIC [13]: 125 µg/mL (≈ 263 µM) | MIC [14]: 125 µg/mL (≈ 263 µM) | MIC [15]: 125 µg/mL (≈ 263 µM) | MIC [16]: 125 µg/mL (≈ 263 µM) | MIC [17]: 125 µg/mL (≈ 263 µM) | MIC [18]: 125 µg/mL (≈ 263 µM) | MIC [19]: 125 µg/mL (≈ 263 µM) | MIC [20]: 125 µg/mL (≈ 263 µM)

CCn1cnc2ccc(F)cc2c1=O
inhibition at 50 µg/mL [1]: 5.5% | inhibition at 50 µg/mL [2]: 4.9% | inhibition at 50 µg/mL [3]: 0.9%

C=CCn1cnc2ccccc2c1=O
inhibition at 50 µg/mL [1]: 5.5% | inhibition at 50 µg/mL [2]: 4.9% | inhibition at 50 µg/mL [3]: 0.9%

CC(C)c1nc2ccc(N(Cc3ccccc3)C(=O)c3ccccc3)cc2c(=O)n1Cc1ccc(-c2ccccc2-c2nnn[nH]2)cc1
IC50 [6]: 0.22 nM

CCCCc1nc2ccc(C(C)O)cc2c(=O)n1Cc1ccc(-c2ccccc2-c2nn[nH]n2)cc1 (stereo not given)
IC50 [5]: 5 nM | Activity [7]: 65 mmHg

O=c1c2ccc(Cl)cc2nc(/C=C/c2ccc(Cl)cc2)n1-c1ccc(OCC2CO2)cc1 (stereo not given)
MIC [8]: 125 µg/mL (≈ 269 µM) | MIC [9]: 125 µg/mL (≈ 269 µM) | MIC [10]: 125 µg/mL (≈ 269 µM) | MIC [11]: 125 µg/mL (≈ 269 µM) | MIC [12]: 125 µg/mL (≈ 269 µM) | MIC [13]: 125 µg/mL (≈ 269 µM) | MIC [14]: 125 µg/mL (≈ 269 µM) | MIC [15]: 125 µg/mL (≈ 269 µM) | MIC [16]: 125 µg/mL (≈ 269 µM) | MIC [17]: 125 µg/mL (≈ 269 µM) | MIC [18]: 125 µg/mL (≈ 269 µM) | MIC [19]: 125 µg/mL (≈ 269 µM) | MIC [20]: 125 µg/mL (≈ 269 µM)

CCCCc1nc2ccc(C(O)CO)cc2c(=O)n1Cc1ccc(-c2ccccc2-c2nn[nH]n2)cc1 (stereo not given)
IC50 [5]: > 1000 nM | Activity [7]: 65 mmHg

CCCn1cnc2ccc(Br)cc2c1=O
inhibition at 50 µg/mL [1]: 55% | inhibition at 50 µg/mL [2]: 47.2% | inhibition at 50 µg/mL [3]: 0.9%

CCC1Nc2ccc(C(C)C)cc2C(=O)N1Cc1ccc(-c2ccccc2-c2nn[nH]n2)cc1 (stereo not given)
inhibition in vivo at 15 mg/kg [4]: 88% | IC50 [5]: 90 nM

CCCCc1nc2ccc(C(OC)c3ccccc3)cc2c(=O)n1Cc1ccc(-c2ccccc2-c2nn[nH]n2)cc1 (stereo not given)
IC50 [5]: > 1000 nM | Activity [7]: 65 mmHg

CCCCc1nc2ccc(C(CC)OC)cc2c(=O)n1Cc1ccc(-c2ccccc2-c2nn[nH]n2)cc1 (stereo not given)
IC50 [5]: 18 nM | Activity [7]: 65 mmHg

CCCCc1nc2ccc(C(C)(C)OC)cc2c(=O)n1Cc1ccc(-c2ccccc2-c2nn[nH]n2)cc1 [CL-329167]
IC50 [5]: 18 nM | Activity [7]: 65 mmHg

CCCCC(CCCC)C1Nc2ccccc2C(=O)N1Cc1ccc(-c2ccccc2-c2nnn[nH]2)cc1 (stereo not given)
inhibition in vivo at 15 mg/kg [4]: 88% | IC50 [5]: 12000 nM
